The term Ki denotes the dissociation constant of the complex between target and ligand, obtained from inhibition or displacement.

The results in this text go back to PMC6010130, “Inhibition of Leishmania infantum trypanothione reductase by diaryl sulfide derivatives” (Journal of Enzyme Inhibition and Medicinal Chemistry, 2017).

The structures appear in SMILES notation.

Test [1] concerns the target T1, trypanothione reductase (TR) (Leishmania infantum, UniProt A4HSF7).
T1 construct: gene TRYR
Description: X-ray crystal structure ([…] Å). It is filed as binding.

The target in test [2] is T1, trypanothione reductase (TR). Description: X-ray crystal structure ([…] Å, soaked oxidized TR); Ki from Dixon plot of the purified enzyme (NADPH oxidation at […] nm). It is filed as biochemical.

T1 sequence (A4HSF7 1-491): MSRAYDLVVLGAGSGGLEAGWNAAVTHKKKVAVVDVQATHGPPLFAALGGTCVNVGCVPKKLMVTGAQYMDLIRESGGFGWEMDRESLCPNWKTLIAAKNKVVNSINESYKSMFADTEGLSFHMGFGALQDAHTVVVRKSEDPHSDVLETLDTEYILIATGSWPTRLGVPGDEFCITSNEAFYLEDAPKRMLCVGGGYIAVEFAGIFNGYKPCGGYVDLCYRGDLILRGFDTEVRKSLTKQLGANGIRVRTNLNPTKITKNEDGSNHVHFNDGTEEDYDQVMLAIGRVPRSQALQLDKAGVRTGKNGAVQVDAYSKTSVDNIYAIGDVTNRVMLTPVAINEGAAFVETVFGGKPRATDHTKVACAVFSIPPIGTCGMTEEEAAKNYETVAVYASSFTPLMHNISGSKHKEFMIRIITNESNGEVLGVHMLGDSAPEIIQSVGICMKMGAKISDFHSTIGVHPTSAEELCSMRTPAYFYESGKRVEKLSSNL

`Cc1cc2nc3c(=O)[nH]c(=O)nc-3n(C[C@H](O)[C@H](O)[C@H](O)COP(=O)(O)OP(=O)(O)OC[C@H]3O[C@@H](n4cnc5c(N)ncnc54)[C@H](O)[C@@H]3O)c2cc1C` [FAD]: in test [1], the “X-ray crystal structure (3.5 Å)” value is on record as “Each monomer contains a FAD molecule”.

As to `CCC(C)Oc1cc(N)nc(Sc2cccc(Cl)c2)n1` (centres unmarked) [RDS 777, 6-(sec-butoxy)-2-((3-chlorophenyl)thio)pyrimidin-4-amine], the Ki in test [2] stood at 250 ± 180 nM.
